Measured values: patent US20230183233A1, “Bicyclic Pyridin-2-one and pyrimidin-4-one Derivatives Useful As a Factor XIa Inhibitors” (Janssen Pharmaceutica NV, priority 2021, published 2023)
Read-outs that look alike come from different tables or passages of the source. Blank lines part the entries; values can stand above or below the molecule they belong to. 5‑FAM = 5-carboxyfluorescein (5-FAM) label at the N-terminus

Legend:
Type in all cases: biochemical
human plasma kallikrein = human plasma kallikrein (Homo sapiens, UniProt P03952); assay: Kallikrein inhibition assay utilizing a quenched AMC peptide substrate (FLINT, kinetic read); conditions: read-out: Kallikrein KIN Inh IC50
Chain of human plasma kallikrein (P03952 391-638 limits assumed): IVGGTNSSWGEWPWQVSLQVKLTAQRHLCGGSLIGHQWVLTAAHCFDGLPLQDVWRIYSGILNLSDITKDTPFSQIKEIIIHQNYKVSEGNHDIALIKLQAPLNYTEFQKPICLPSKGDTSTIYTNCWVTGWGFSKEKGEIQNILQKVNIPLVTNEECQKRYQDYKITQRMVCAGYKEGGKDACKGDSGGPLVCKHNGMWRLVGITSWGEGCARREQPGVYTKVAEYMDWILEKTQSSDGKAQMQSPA
Chain of human plasma kallikrein (P03952 20-390 partner limits assumed): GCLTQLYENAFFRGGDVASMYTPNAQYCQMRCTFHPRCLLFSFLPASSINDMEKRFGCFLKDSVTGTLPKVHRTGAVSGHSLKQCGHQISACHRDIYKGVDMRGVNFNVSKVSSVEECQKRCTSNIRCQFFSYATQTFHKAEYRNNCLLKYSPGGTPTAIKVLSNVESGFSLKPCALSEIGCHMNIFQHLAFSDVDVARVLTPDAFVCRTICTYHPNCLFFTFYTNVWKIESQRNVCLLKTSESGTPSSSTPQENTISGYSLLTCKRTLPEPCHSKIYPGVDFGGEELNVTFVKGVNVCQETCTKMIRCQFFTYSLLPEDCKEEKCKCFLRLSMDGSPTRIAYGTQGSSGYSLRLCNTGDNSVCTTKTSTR

Factor XIa [1] = biological target: T1, Factor XIa (Homo sapiens, UniProt P03951); assay: Factor XIa inhibition assay utilizing a fluorophore-quencher pair peptide substrate (FLINT, kinetic read); conditions: read-out: FXIa KIN Inh IC50
T1 sequence (P03951 388-625 limits assumed): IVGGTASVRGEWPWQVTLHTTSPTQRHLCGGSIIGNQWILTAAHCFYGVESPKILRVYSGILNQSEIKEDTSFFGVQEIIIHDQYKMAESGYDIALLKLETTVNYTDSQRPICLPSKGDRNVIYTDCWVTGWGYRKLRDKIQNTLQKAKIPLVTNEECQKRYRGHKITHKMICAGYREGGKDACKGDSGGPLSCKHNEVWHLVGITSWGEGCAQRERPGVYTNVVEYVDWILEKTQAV
T1 sequence (P03951 19-387 partner limits assumed): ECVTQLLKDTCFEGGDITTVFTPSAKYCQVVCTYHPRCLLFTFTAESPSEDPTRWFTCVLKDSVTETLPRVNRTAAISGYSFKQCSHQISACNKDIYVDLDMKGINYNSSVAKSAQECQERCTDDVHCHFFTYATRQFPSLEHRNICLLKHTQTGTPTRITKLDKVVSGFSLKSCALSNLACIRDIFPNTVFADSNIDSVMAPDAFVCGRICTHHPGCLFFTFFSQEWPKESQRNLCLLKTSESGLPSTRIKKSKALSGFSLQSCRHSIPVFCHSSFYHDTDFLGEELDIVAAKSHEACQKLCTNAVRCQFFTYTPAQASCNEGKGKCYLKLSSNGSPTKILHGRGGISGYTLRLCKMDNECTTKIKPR
Description: Biological Example 1: Factor XIa Inhibition Assay Utilizing a Fluorophore-Quencher Pair Peptide Substrate A fluorescence intensity (FLINT) based assay was used to monitor inhibition of Factor XIa. The peptide substrate, 5Fam-[…]-K5Tamra (purchased from New England Peptide) was chosen based on the FXI sequence. Conversion of zymogen FXI to its activated form, FXIa, occurs by proteolytic cleavage by […] at two sites, Arg146 and Arg180. The custom peptide used in this assay was based on the Arg146 cleavage site of FXI. The peptide substrate was designed with a fluorophore-quencher pair, where the fluorescence is quenched until FXIa cleaves the 8-mer peptide after the Arg residue.
The 2× Factor XIa stock solution was prepared by diluting 6.562 μM stock in 1× assay buffer for a […].
Test compound(s) were run in an 11-point, 3-fold serial dilution with a final top compound concentration of 100 nM. Final DMSO in assay was 2%. FXIa was preincubated with compound for 30-minutes and then substrate was added to initiate the reaction. The assay was run with kinetic (KIN) reads at 5 min intervals over 30 minutes. […] More specifically, the assay was run as follows: • 100 nL of 0.01 mM test compound was dispensed into black 384-well non-binding Greiner BioOne 784900 plate for 0.1 μM final concentration; • 5 μL of 1× assay buffer was dispensed to column 24 (low control) and 5 μL 2× Factor XIa solution was dispensed to columns 1-23 (column 23 high control); • the plate was centrifuged with a “cover” plate at 500 rpm for 1 min • the plate was pre-incubated for 30 minutes at room temperature with plate covered; • 5 μL of 2× 5Fam-[…]-K5Tamra peptide substrate was dispensed into the entire plate, columns 1-24; • the plate was centrifuged with a “cover” plate at 500 rpm for 1 min; • the plate was read monitoring fluorescence intensity on the BMG PHERAStar at room temperature, using fluorescence module 485 nm/520 nm.
Percent inhibition (IC50) curves were generated per compound tested, and data was analyzed using a 4-parameter logistic fit using GeneData Screener. The relative fluorescence unit (RFU) values were normalized to percent inhibition using the following equation:
% inhibition=((HC−LC)−(compound−LC)/(HC−LC))*100 where LC—low control=mean signal of no Factor XIa or 100% inhibition of Factor XIa; HC—high control=mean signal of Factor XIa+5Fam-[…]-K5Tamra peptide substrate with DMSO only.
An 11-point dose response curve for the test compound(s) was generated using GENDATA to determine IC50 value based on the following equation:
Y=Bottom+(Top−Bottom)/(1+10^((log IC50−X)*HillSlope)) where Y is the % inhibition in the presence of X inhibitor concentration, Top=high control=mean signal of Factor XIa+5Fam-[…]-K5Tamra peptide substrate with DMSO only; Bottom=low control−mean signal of no Factor XIa or 100% inhibition of Factor XIa; HillSlope—Hill coefficient; and IC50=concentration of compound with 50% inhibition in relation to top/high control.

Factor XIa [2] = biological target: T1, Factor XIa; assay: as above; conditions: peptide substrate cleaved by FXIa; fit to a substrate inhibition model

Molecule: C[C@H]1C[C@@H](c2[nH]c(-c3ccc(N)nc3F)nc2F)n2c1cc(-c1c(-n3cnnn3)ccc(Cl)c1F)cc2=O (relative stereo) [Example 35, (1*S,3*S)-3-(2-(6-Amino-2-fluoropyridin-3-yl)-4-fluoro-1H-imidazol-5-yl)-7-(3-chloro-2-fluoro-6-(1H-tetrazol-1-yl)phenyl)-1-methyl-2,3-dihydroindolizin-5(1H)-one]
IC50 (human plasma kallikrein; values given with μM): 9.8 µM
IC50 (Factor XIa [1]; values in nM): ~610 nM

Molecule: CC1C[C@@H](c2ncc(-c3cnns3)[nH]2)n2c1nc(-c1c(-n3cnnn3)ccc(Cl)c1F)cc2=O (stereo in doubt) [Example 110, (6*S)-6-(5-(1,2,3-Thiadiazol-5-yl)-1H-imidazol-2-yl)-2-(3-chloro-2-fluoro-6-(1H-tetrazol-1-yl)phenyl)-8-methyl-7,8-dihydropyrrolo[1,2-a]pyrimidin-4(6H)-one]
IC50 (human plasma kallikrein; values given with μM): 2.3 µM
IC50 (Factor XIa [1]; values in nM): 92.1 nM

Molecule: C[C@H]1C[C@H](c2ncc(-c3ccc(N)nc3Cl)[nH]2)n2c1cc(-c1c(-n3cnnn3)ccc(Cl)c1F)cc2=O (relative stereo) [Example 37, (1*S,3*R)-3-(5-(6-Amino-2-chloropyridin-3-yl)-1H-imidazol-2-yl)-7-(3-chloro-2-fluoro-6-(1H-tetrazol-1-yl)phenyl)-1-methyl-2,3-dihydroindolizin-5(1H)-one]
IC50 (human plasma kallikrein; values given with μM): 7.8 µM
IC50 (Factor XIa [1]; values in nM): 283 nM

Molecule: 5Fam-KLTRAETV-K5Tamra ({5‑FAM}-KLTRAETVK-{5‑TAMRA}) ["The peptide substrate ... designed with a fluorophore-quencher pair", "based on the Arg146 cleavage site of FXI", purchased from New England Peptide]
Ki (Factor XIa [2]): 61600 nM
Km (Factor XIa [2]): 12.4 µM
kcat (Factor XIa [2]): 0.86 s⁻¹

Molecule: C[C@H]1C[C@@H](c2ncc(-c3ccnc(CN)c3)[nH]2)n2c1cc(-c1c(-n3cnnn3)ccc(Cl)c1F)cc2=O (relative stereo) [Example 39, (1*S,3*S)-3-(5-(2-(Aminomethyl)pyridin-4-yl)-1H-imidazol-2-yl)-7-(3-chloro-2-fluoro-6-(1H-tetrazol-1-yl)phenyl)-1-methyl-2,3-dihydroindolizin-5(1H)-one]
IC50 (Factor XIa [1]; values given with μM): 6600 nM

More lines, now with the values ahead:

IC50 (human plasma kallikrein; values in nM): 0.0235 µM
IC50 (Factor XIa [1]; values in nM): 0.3 nM
Molecule: C[C@H]1C[C@@H](c2ncc(-c3ccc(N)nc3F)[nH]2)n2c1nc(-c1c(-n3cnnn3)ccc(Cl)c1F)cc2=O (relative stereo) [Example 149, (6*S,8*S)-6-(5-(6-Amino-2-fluoropyridin-3-yl)-1H-imidazol-2-yl)-2-(3-chloro-2-fluoro-6-(1H-tetrazol-1-yl)phenyl)-8-methyl-7,8-dihydropyrrolo[1,2-a]pyrimidin-4(6H)-one]

IC50 (human plasma kallikrein; values in nM): 0.0392 µM
IC50 (Factor XIa [1]; values in nM): 2.7 nM
Molecule: Nc1ccc(-c2cnc([C@H]3CC4(CC4)c4cc(-c5cc(Cl)ccc5-n5cnnn5)cc(=O)n43)[nH]2)c(F)n1 (single isomer, unassigned) [Example 3]

IC50 (human plasma kallikrein; values in nM): 0.296 µM
IC50 (Factor XIa [1]; values in nM): 9 nM
Molecule: C[C@H]1C[C@@H](c2ncc(-c3ccnn3C)[nH]2)n2c1nc(-c1c(-n3cnnn3)ccc(Cl)c1F)cc2=O (relative stereo) [Example 146, (6*S,8*S)-2-(3-Chloro-2-fluoro-6-(1H-tetrazol-1-yl)phenyl)-8-methyl-6-(5-(1-methyl-1H-pyrazol-5-yl)-1H-imidazol-2-yl)-7,8-dihydropyrrolo[1,2-a]pyrimidin-4(6H)-one]
